Source: US6586435B2, “Benzimidazolone derivatives displaying affinity at the serotonin and dopamine receptors” (Boehringer Ingelheim Pharma KG, priority 2000, dated 2003)
Where two headings read alike, the source gives them in different places.

Tests used:
5-HT1A human receptors = target: T1, 5-HT1A human receptors (Homo sapiens, UniProt P08908); assay: 5-HT1A radioligand receptor binding assay ([3H]-8-OH-DPAT); details: for inhibition at 0.1 µM: compound 10^−7 M, singlicate, [3H]-8-OH-DPAT 0.6-0.7 nM
T1 construct: expressed in transfected cells; host or cells: CHO cells
T1 sequence (P08908 1-422): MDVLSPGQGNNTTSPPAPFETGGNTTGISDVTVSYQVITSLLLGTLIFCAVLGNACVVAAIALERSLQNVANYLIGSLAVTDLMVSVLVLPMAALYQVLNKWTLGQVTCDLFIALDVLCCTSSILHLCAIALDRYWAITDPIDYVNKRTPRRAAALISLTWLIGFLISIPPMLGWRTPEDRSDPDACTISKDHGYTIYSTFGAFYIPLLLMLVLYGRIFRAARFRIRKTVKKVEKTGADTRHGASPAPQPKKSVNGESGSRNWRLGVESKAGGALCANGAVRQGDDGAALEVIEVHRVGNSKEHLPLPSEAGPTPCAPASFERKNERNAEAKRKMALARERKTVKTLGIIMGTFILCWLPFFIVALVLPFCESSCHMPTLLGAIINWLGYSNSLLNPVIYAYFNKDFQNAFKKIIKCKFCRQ
Experimental: 5-HT1A, Radioligand Receptor Binding Assay
Membranes from CHO cells, expressing 5-HT1A human receptors were suspended in incubation buffer.
Binding assays were performed in MultiProbe 204 pipetting system (Packard), according to a predetermined mapping, consistent with the software Screen. The compounds were tested in singlicate at one concentration (10^−7 M) in a total volume of 1000 μl. 980 μl of diluted membranes, 10 μl DMSO or unlabelled ligand, and 10 μl of [^3H]-8-OH-DPAT (0.6-0.7 nM) were incubated for 60 minutes at 27° C. The reaction was stopped by rapid filtration through Tomtec Cell Harvester (48 wells) using Filtermat B (presoaked in 0.1% PEI) filters. Filters were washed with ice-cold 50 mM Tris-HCl (pH 7.4) buffer (9×700 μl), dried, covered with MeltiLex B/HS scintillator sheets (Wallac) and heated at 80° C. to 90° C. for about 10 minutes, transferred into plastic sample bags (Wallac), sealed and put into 1024 Beta Plate scintillation counter (Wallac). Non-specific binding was determined in the presence of 5-HT (10^−5 M).
The specific radioligand binding to the receptor was defined by the difference between total binding and non-specific binding, determined in the presence of an excess of unlabelled ligand. Results were expressed as percentage of control specific binding obtained in the presence of the compounds. The affinity values (IC50) for the compounds were obtained by a nonlinear least squares regression analysis on the basis of a one binding site model.

D4 human receptors = target: T2, D4 human receptors (Homo sapiens, UniProt P21917); assay: D4 radioligand receptor binding assay ([3H] YM-09151-2); details: compound 10^−7 M, singlicate; membranes from CHO cells; [3H] YM-09151-2 0.15-0.25 nM
T2 construct: expressed in transfected cells; host or cells: CHO cells
T2 sequence (P21917 1-419): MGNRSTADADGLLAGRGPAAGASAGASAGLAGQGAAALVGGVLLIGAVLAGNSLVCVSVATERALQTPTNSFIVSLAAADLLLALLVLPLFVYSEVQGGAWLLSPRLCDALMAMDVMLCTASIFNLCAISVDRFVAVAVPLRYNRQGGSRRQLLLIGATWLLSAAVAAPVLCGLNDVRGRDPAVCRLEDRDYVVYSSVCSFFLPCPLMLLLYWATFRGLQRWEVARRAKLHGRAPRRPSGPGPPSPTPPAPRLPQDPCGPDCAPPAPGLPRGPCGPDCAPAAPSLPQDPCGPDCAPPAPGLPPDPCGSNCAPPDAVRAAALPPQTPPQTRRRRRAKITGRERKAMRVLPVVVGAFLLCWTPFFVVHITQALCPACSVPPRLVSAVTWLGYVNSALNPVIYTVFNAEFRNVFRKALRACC
Experimental: D4 Radioligand Receptor Binding Assay
Membranes from CHO cells, expressing D4 human receptors were suspended in incubation buffer.
Binding assays were performed in MultiProbe 204 pipetting system (Packard), according to a predetermined mapping, consistent with the software Screen. The compounds were tested in singlicate at one concentration (10^−7 M) in a total volume of 1000 μl (980 μl of diluted membranes, 10 μl DMSO or unlabelled ligand, and 10 μl of [^3H] YM-09151-2 (0.15-0.25 nM). After incubation for 120 minutes at 27° C., the reaction was stopped by rapid filtration through Tomtec Cell Harvester (48 wells) using Filtermat B (presoaked in 0.1% PEI) filters. Filters were washed with ice-cold 50 mM Tris-HCl (pH 7.4) buffer (9×700 μl), dried, covered with MeltiLex B/HS (Wallac) scintillator sheets and heated in oven at 80° C.-90° C. for about 10 minutes, transferred into plastic sample bags (Wallac), sealed and put into 1024 Beta Plate scintillation counter (Wallac). Non-specific binding was determined in the presence of clozapine dissolved in DMSO to a final concentration of 10^−5 M.
The specific radioligand binding to the receptor was defined by the difference between total binding and non-specific binding, determined in the presence of an excess of unlabelled ligand. Results were expressed as percentage of control specific binding obtained in the presence of the compounds.

[1] = target: T3, 5-HT1A receptor (CHO/5-HT1A cells) (Homo sapiens, UniProt P08908); assay: 5-HT1A functional assay (cAMP); assay type: cell-based; details: 10 μM compound, % inhibition of the cAMP accumulation induced by 10 μM FSK, read-out: 5-HT1A cAMP % Inhibition (agonist activity)
T3 construct: expressed in transfected cells; host or cells: CHO/5-HT1A cells
T3 sequence (P08908 1-422): T1 sequence (P08908 1-422)
Experimental: 5-HT1A Functional Assay (cAMP)
CHO/5-HT1A cells were random seeded at a density of about 200,000/well in 24 well plates the day prior to the experiment. On the day of the experiment, cells were pretreated for 15 minutes at 37° C. with 500 μM isobutylmethylxantine (IBMX) dissolved in culture medium without serum. Wells were then divided in different groups in duplicate as follows: control, 10 μM FSK, 10 μM FSK+1 μM 5-HT as positive standard and 10 μM FSK+10 μM of the different compound under evaluation. Sample solutions were added and incubated for additional 15 minutes at 37° C. After incubation, medium was aspirated and the reaction stopped by adding 200 μl of lysis buffer. Plates were shaken for 5 minutes, then the lysate was removed and samples were stored at 4° C. until the day of the assay. For the cAMP evaluation, samples were properly diluted and the cAMP content was measured by an enzyme immunoassay system.
Results are expressed as % inhibition of the cAMP accumulation induced by 10 μM FSK.

[2] = membranes from CHO cells, [3H]-8-OH-DPAT, one binding site model, read-out: 5-HT1A Receptor Binding IC50

Row | SMILES | inhibition at 0.1 µM (5-HT1A human receptors; membranes from CHO cells) [%] | IC50 (5-HT1A human receptors; [2]) [nM] | inhibition at 0.1 µM (D4 human receptors) [%] | inhibition at 10 µM [1] [%] | IC50 (5-HT1A human receptors) [nM]
1 | O=c1n(C/C=C/CN2CCN(c3ccccn3)CC2)c2ccccc2n1CC1CCCCC1 [Compound 123] | 98 | 1.2 | 57 | 63 | –
2 | CCCn1c(=O)n(C/C=C\CN2CCN(c3cccc(Cl)c3)CC2)c2ccccc21 [Compound 56] | 92 | 11 | 65 | 65 | –
3 | CCCn1c(=O)n(C/C=C/CN2CC=C(c3ccccc3)CC2)c2ccccc21 [Compound 112] | 87 | – | 43 | 9 | 13
4 | CCCn1c(=O)n(C/C=C/CN2CCN(c3cccc(Cl)c3)CC2)c2ccccc21 [Compound 107] | 96 | 5.3 | 69 | 54 | –
5 | O=c1[nH]c2ccccc2n1C/C=C\CN1CC=C(c2ccccc2)CC1 [Compound 27] | 87 | – | 70 | 44 | 6.4
6 | O=c1n(C/C=C/CN2CCc3c([nH]c4ccccc34)C2)c2ccccc2n1CC1CCCCC1 [Compound 126] | – | 15 | – | 44 | –
7 | Cn1c(=O)n(C/C=C\CN2CC=C(c3ccccc3)CC2)c2ccccc21 [Compound 44] | 94 | – | 69 | 47 | 2.5
8 | O=c1n(C/C=C/CN2CCN(c3cccc(Cl)c3)CC2)c2ccccc2n1CC1CCCCC1 [Compound 124] | 99 | 11 | 49 | 47 | –
9 | CCCn1c(=O)n(C/C=C\CN2CCN(c3cccc(C(F)(F)F)c3)CC2)c2ccccc21 [Compound 60] | 88 | 1.8 | 30 | 71 | –
10 | Cn1c(=O)n(C/C=C/CN2CCc3c([nH]c4ccccc34)C2)c2ccccc21 [Compound 92] | 88 | 15 | 54 | 46 | –
11 | Cn1c(=O)n(C/C=C/CN2CCN(c3ccccn3)CC2)c2ccccc21 [Compound 89] | 92 | 10 | 34 | 66 | –
12 | CCCn1c(=O)n(C/C=C\CN2CC=C(c3ccccc3)CC2)c2ccccc21 [Compound 61] | 90 | – | 44 | 26 | 5.2
13 | O=c1[nH]c2ccccc2n1C/C=C\CN1CCN(c2cccc(C(F)(F)F)c2)CC1 [Compound 26] | 94 | – | 49 | 68 | 6.6
14 | Cn1c(=O)n(C/C=C\CN2CCN(c3ccccc3)CC2)c2ccccc21 [Compound 35] | 88 | 15 | 59 | 66 | –
15 | Cn1c(=O)n(C/C=C\CN2CCN(c3cccc(C(F)(F)F)c3)CC2)c2ccccc21 [Compound 43] | 94 | 1.2 | 54 | 73 | –
16 | Cn1c(=O)n(C/C=C/CN2CC=C(c3ccccc3)CC2)c2ccccc21 [Compound 95] | 92 | – | 46 | 22 | 7.3
17 | O=c1n(C/C=C\CN2CC=C(c3ccccc3)CC2)c2ccccc2n1CC1CCCCC1 [Compound 78] | 86 | – | 40 | 27 | 18
18 | O=c1n(C/C=C/CN2CC=C(c3ccccc3)CC2)c2ccccc2n1CC1CCCCC1 [Compound 129] | – | – | – | 13 | 5.5
19 | CCCn1c(=O)n(C/C=C\CN2CCN(c3ccccc3)CC2)c2ccccc21 [Compound 52] | 90 | 16 | 47 | 54 | –
20 | Cn1c(=O)n(C/C=C\CN2CCN(c3cccc(Cl)c3)CC2)c2ccccc21 [Compound 39] | 91 | 9.8 | 72 | 63 | –
21 | O=c1n(C/C=C/CN2CCN(c3ncccn3)CC2)c2ccccc2n1CC1CCCCC1 [Compound 125] | 90 | 3.3 | 51 | 49 | –
22 | O=c1n(C/C=C/CN2CCN(c3cccc(C(F)(F)F)c3)CC2)c2ccccc2n1CC1CCCCC1 [Compound 128] | – | 8.4 | – | 61 | –
23 | Cn1c(=O)n(C/C=C/CN2CCN(c3cccc(C(F)(F)F)c3)CC2)c2ccccc21 [Compound 94] | – | 0.96 | – | 75 | –
